From patent US12650432B2, “SCARA5 and DIO2 as biomarkers for miscarriage and implantation failure” (The University of Warwick, priority 2019, dated 2026)
Values joined by “and” are separate entries in the source; they are usually repeats but may differ in a detail not shown here. Identical values can stand only once. Marks after values point to notes of the source that are not given here.

Experiments:
[1] = test system: haematopoietic stem and progenitor cells; conditions: up to 600 mg twice daily, after umbilical cord blood transplantation; cited from earlier work
[2] = Adverse events and side effects in trial participants; format: in vivo, human
Description: (§1) Following written informed consent, participants were given a digital home ovulation test kit (Clearblue, Geneva, Switzerland), an emergency contact card, and barrier contraception. Participants then attended the clinic 7-10 days after the luteinizing hormone (LH) surge (LH+7-10). Following a negative urine pregnancy test, a transvaginal pelvic ultrasound scan was performed. Endometrial thickness was defined as the maximal endometrium diameter measured in a mid-sagittal plane. Next, an endometrial biopsy was obtained using a Wallach Endocell® endometrial sampler. The sample, designated ‘baseline biopsy’, was immediately portioned with one part stored in RNALater Stabilization Solution (Sigma-Aldrich, Dorset, UK) one part snap frozen in liquid nitrogen, one part fixed in 10% formalin for immunohistochemistry, and the remainder placed in 10% DMEM/F12 for isolation of primary endometrial stromal cells (see below). Following randomisation (see below), trial medication was provided and all participants attended two follow-up clinics at 4 weeks±4 day intervals. At these follow-up visits a urine pregnancy test was carried out, symptom diaries were reviewed, adverse events reported, and willingness for continued participation confirmed. At the second follow-up visit, participants were provided with another home ovulation test kit. In the third cycle, participants attended the clinic on LH+7-10 for a repeat transvaginal ultrasound scan with measurement of endometrial thickness and endometrial biopsy. The sample, designated ‘second biopsy’, was processed identically to the baseline biopsy. Trial medication was stopped on the day of the second biopsy.
(§2) Participants were provided with compliance and symptom diaries at each visit. Diaries were assessed at every follow-up or biopsy visit. Acceptability and satisfaction of the study was assessed with a Likert scale-based questionnaire completed by participants after their final visit. Participants who conceived after completion of the study were requested to contact the trial team and outcome of the first pregnancy within one year of study completion was recorded.

[3] = test system: IGFBP1; test: RT-qPCR of IGFBP1 transcript in paired endometrial biopsies; format: in vivo, human; conditions: second vs baseline biopsy, oral 100 mg daily for 3 cycles, n=16
Description: (§3) RNA was extracted from RNAlater preserved tissue using the RNeasy Lipid Tissue Mini Kit (QIAGEN, Manchester, UK), with on-column DNase treatment, according to the manufacturer's instructions. RNA was assessed using a Nanodrop ND-1000 spectrophotometer and 1 μg RNA used for reverse transcription, performed using the Quantitect Reverse Transcription Kit (QIAGEN) according to manufacturer's instructions. Thermal cycling was performed on a QuantStudio 5 Real-Time PCR System (ThermoFisher, Paisley, UK), using PrecisionPlus 2× Mastermix (Primer Design, Southampton, UK), 300 nM each forward and reverse primers and 1 μl cDNA. L19 was used as a reference gene and data were analysed using the Pfaffl method (68).
(§4) Induction of PRL and IGFBP1 expression is widely used to monitor the decidual response in cultured EnSC (14).

[4] = test system: endometrial stromal cells (EnSC); test: Colony-forming unit (CFU) assay on EnSC from paired endometrial biopsies, randomised placebo-controlled trial in RPL patients; format: in vivo, human
From the text: Participants were recruited from a tertiary recurrent miscarriage clinic at UHCW NHS Trust. […] Participants agreed to actively avoid pregnancy and use barrier contraception for the duration of the trial.
Participants were instructed to take the capsules once daily from the day of the baseline biopsy for 3 menstrual cycles until the second biopsy was taken. The control group were allocated identical placebo capsules also supplied by Sharp Clinical Services and instructed to take these exactly as the intervention group.
as §1
Primary EnSC were isolated according to our published protocol (65). Briefly, samples were washed in DMEM/F-12 medium (Invitrogen), finely minced and enzymatically digested with 0.5 mg/ml collagenase (Sigma-Aldrich) and 0.1 mg/ml deoxyribonuclease type I (Roche, Burgess Hill, UK) for 1 hour in 5% CO2 at 37° C. Stromal and epithelial fractions were separated and cryopreserved in 10% DMSO in dextran-coated charcoal-stripped fetal bovine serum (DCC; 2 ml per vial; Invitrogen), with the stromal fraction split into two or three vials depending on the biopsy size. After controlled cooling at −80° C. overnight, samples were transferred to liquid nitrogen for storage.
All CFU assays were conducted in batches, consisting of paired primary endometrial stromal cells isolated from baseline and second biopsies from 3 or 4 participants. CFU assays were established as described previously (66). Briefly, cryopreserved stromal cells were thawed for 3 minutes at 37° C. and then transferred immediately into pre-warmed growth medium (DMEM-F12 medium containing 10% DCC supplemented with 1% L-Glutamine and 1% antibiotic-antimycotic mix; Invitrogen). Cells were pelleted by centrifugation at 276×g for 5 minutes, supernatant was aspirated and cells were resuspended in 10 ml growth medium. Viable stromal cells were counted in trypan blue on a Neubauer Improved haemocytometer and seeded at clonal density (53 cells/cm2) onto fibronectin-coated 6-well plates (10 μg/ml in PBS; Sigma-Aldrich) in growth medium supplemented with […] basic fibroblast growth factor (Sigma Aldrich). Three wells, containing 500 cells each, were seeded per biopsy. Plates were cultured in 5% CO2 at 37° C., and left undisturbed for 3 days after which growth was monitored to ensure colonies arose from single cells.

[5] = Outcome of first pregnancy within 12 months after study completion; format: in vivo, human; conditions: sitagliptin group
Description: as §2

[6] = test system: DIO2; test: RT-qPCR of DIO2 mRNA (senescent decidual cell marker) in paired endometrial biopsies; format: in vivo, human
Description: as §3, §4

[7] = granulocyte-CSF-dependent mobilisation of BMDC followed by sitagliptin 100 mg for 28 days; cited from earlier work
[8] = test system: SCARA5; test: RT-qPCR of SCARA5 mRNA (decidual cell marker) in paired endometrial biopsies; format: in vivo, human; conditions: second vs baseline biopsy, oral 100 mg daily for 3 cycles, n=16
Description: as §3, §4

[9] = test system: PRL; test: RT-qPCR of PRL transcript in paired endometrial biopsies; format: in vivo, human; conditions: second vs baseline biopsy, oral 100 mg daily for 3 cycles, n=16
Description: as §3, §4

[10] = sitagliptin group (n = 16), baseline biopsy before treatment

Structure (SMILES): N[C@@H](CC(=O)N1CCn2c(nnc2C(F)(F)F)C1)Cc1cc(F)c(F)cc1F [sitagliptin]
- Engraftment of haematopoietic stem and progenitor cells in bone marrow [1]: improve engraftment of haematopoietic stem and progenitor cells in bone marrow
- Adverse events, overall statement ([2]; pre-pregnancy sitagliptin treatment in RPL patients): no adverse events were reported
- Chills, events ([2]; sitagliptin group n = 19): 1
- Diarrhoea, events ([2]; sitagliptin group n = 19): 0
- Dizziness, events ([2]; sitagliptin group n = 19): 2
- Dizziness, participants ([2]; sitagliptin group n = 19): 1
- Dry Nose, events ([2]; sitagliptin group n = 19): 0
- Dry mouth, events ([2]; sitagliptin group n = 19): 1
- Headache, events ([2]; sitagliptin group n = 19): 10
- Headache, participants ([2]; sitagliptin group n = 19): 4
- Low Mood, events ([2]; sitagliptin group n = 19): 1
- Mouth ulcers, events ([2]; sitagliptin group n = 19): 0
- Myalgia, events ([2]; sitagliptin group n = 19): 1
- Nausea, events ([2]; sitagliptin group n = 19): 1
- Night sweats, events ([2]; sitagliptin group n = 19): 1
- Nose bleed, events ([2]; sitagliptin group n = 19): 0
- Rash, events ([2]; sitagliptin group n = 19): 0
- Sore Throat, events ([2]; sitagliptin group n = 19): 1
- Stuffy Nose, events ([2]; sitagliptin group n = 19): 0
- Thinning of hair, events ([2]; sitagliptin group n = 19): 0
- Thirst, events ([2]; sitagliptin group n = 19): 1
- UTI, events ([2]; sitagliptin group n = 19): 1
- IGFBP1 transcript level normalized to L19 [3]: not significantly different
- Second biopsy CFU count, Median (IQR, Range) ([4]; RPL patients, oral 100 mg once daily for 3 menstrual cycles): 14.0 (8.0-29.0, 3-145)^‡ per 1500 EnSC
- Median increase in CFU count, second compared to baseline biopsy ([4]; after 3 cycles of sitagliptin): +7 per 1500 EnSC
- Mean CFU count in second biopsy higher than placebo group, adjusted for baseline CFU count ([4]; after 3 cycles, oral 100 mg daily): 51%
- Mean CFU count, second biopsy ([4]; all data, RPL patients, oral 100 mg once daily for 3 menstrual cycles): 27.67 per 1500 EnSC
- Mean CFU count, second biopsy ([4]; all data, RPL patients, oral 100 mg once daily for 3 menstrual cycles, listed as Sitagliptin): 27.7 (35.8) per 1500 EnSC and 27.7 per 1500 EnSC
- Average increase in CFU counts compared to baseline biopsy ([4]; sitagliptin given for 3 menstrual cycles): 68%
- Baseline CFU count, Mean (SD) [4, 10]: 16.1 (19.6) per 1500 EnSC
- Baseline CFU count, Median (IQR, Range) [4, 10]: 8.5 (4.5-17.8, 1-74) per 1500 EnSC
- Mean CFU count, second biopsy ([4]; subgroup excluding women with outlying CFU counts (>20 colonies per 1500 cells), after 3 cycles): 14.42 per 1500 EnSC
- Termination of pregnancy at 16 weeks for a fetal abnormality [5]: one
- Live births ([5]; 12 pregnancies): 8
- Spontaneous pregnancy losses before 12 weeks of gestation ([5]; 12 pregnancies): 3
- DIO2 mRNA level, median, second biopsy ([6]; after 3 cycles oral 100 mg daily, n=16, normalized to L19, P=0.0182 vs baseline): 3.86 a.u.
- DIO2 mRNA level, median, baseline biopsy ([6]; sitagliptin group before treatment, n=16, normalized to L19): 5.09 a.u.
- Cardiac function [7]: failed to improve cardiac function
- SCARA5 mRNA level normalized to L19 [8]: not altered significantly
- PRL transcript level normalized to L19 [9]: not significantly different
